Patent US8101761B2, “(E)-N-{3-[1-(8-fluoro-11H-10-OXA-1-AZA-dibenzo [A,D] cyclohepten-5ylidene)-propyl]-phenyl}-methanesulfonamide as glucocorticoid receptor modulator for the treatment of rheumatoid arthritis” (Eli Lilly and Company, priority 2008, dated 2012)

Molecular target: T1, human AR (androgen receptor) (Homo sapiens, UniProt P10275)
T1 construct: expressed in transfected cells; host or cells: HEK293 (293-AR lysate)
T1 sequence (P10275 1-920): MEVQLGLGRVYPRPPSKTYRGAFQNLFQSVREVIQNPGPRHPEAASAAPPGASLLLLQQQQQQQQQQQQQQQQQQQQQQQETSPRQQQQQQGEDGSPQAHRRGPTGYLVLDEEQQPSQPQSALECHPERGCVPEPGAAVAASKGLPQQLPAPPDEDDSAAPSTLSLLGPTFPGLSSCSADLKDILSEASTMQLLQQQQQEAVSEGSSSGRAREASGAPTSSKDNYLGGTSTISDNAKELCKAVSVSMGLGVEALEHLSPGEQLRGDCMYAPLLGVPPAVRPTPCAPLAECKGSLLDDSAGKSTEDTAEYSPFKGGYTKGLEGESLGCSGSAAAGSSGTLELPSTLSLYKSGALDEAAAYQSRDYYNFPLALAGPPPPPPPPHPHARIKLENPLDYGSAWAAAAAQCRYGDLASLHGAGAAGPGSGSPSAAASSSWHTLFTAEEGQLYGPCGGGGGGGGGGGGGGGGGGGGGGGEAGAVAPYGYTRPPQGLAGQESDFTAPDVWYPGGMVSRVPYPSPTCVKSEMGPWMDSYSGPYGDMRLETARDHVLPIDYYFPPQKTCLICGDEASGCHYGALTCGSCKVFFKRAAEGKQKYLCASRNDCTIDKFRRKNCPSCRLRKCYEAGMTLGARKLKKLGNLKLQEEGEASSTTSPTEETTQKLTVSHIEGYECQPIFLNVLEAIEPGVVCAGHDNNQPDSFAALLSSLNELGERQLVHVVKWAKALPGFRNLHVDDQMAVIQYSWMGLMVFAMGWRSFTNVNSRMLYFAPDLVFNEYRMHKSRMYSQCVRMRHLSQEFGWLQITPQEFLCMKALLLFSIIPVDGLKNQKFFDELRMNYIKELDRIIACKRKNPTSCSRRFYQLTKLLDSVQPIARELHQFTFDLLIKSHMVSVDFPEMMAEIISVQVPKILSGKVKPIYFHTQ
Assay: Nuclear hormone receptor competition binding assay, AR
Details: HEK293 lysate overexpressing human AR, [3H]-methyltrienolone; mean of n=7
Protocol: Cell lysates from human embryonic kidney HEK293 cells overexpressing human GR (glucocorticoid receptor), AR (androgen receptor), MR (mineralocorticoid receptor), or PR (progesterone receptor) are used for receptor-ligand competition binding assays to determine Ki values.
Briefly, steroid receptor competition binding assays are run in a buffer containing 20 mM Hepes buffer (pH=7.6), 0.2 mM EDTA, 75 mM NaCl, 1.5 mM MgCl2, 20% glycerol, 20 mM sodium molybdate, 0.2 mM DTT (dithiothreitol), 20 μg/ml aprotinin and 20 μg/ml leupeptin. Typically, steroid receptor binding assays include radio-labeled ligands, such as 0.3 nM [^3H]-dexamethasone for GR binding, 0.36 nM [^3H]-methyltrienolone for AR binding, 0.25 nM [^3H]-aldosterone for MR binding, and 0.29 nM [^3H]-methyltrienolone for PR binding, and either 20 μg 293-GR lysate, 22 μg 293-AR lysate, 20 μg 293-MR lysate or 40 μg 293-PR lysate per well. Assays are typically run in 96-well format. Competing test compounds are added at various concentrations ranging from about 0.01 nM to 10 μM. Non-specific binding is determined in the presence of 500 nM dexamethasone for GR binding, 500 nM aldosterone for MR binding, or 500 nM methyltrienolone for AR and PR binding. […] After an incubation of 2 hours, plates are read in a Wallac Microbeta counter. […]

SMILES: CC/C(=C1\c2ccc(F)cc2OCc2ncccc21)c1cccc(NS(C)(=O)=O)c1 [Compound (I), (E)-N-{3-[1-(8-Fluoro-11H-10-oxa-1-aza-dibenzo[a,d]cyclohepten-5-ylidene)-propyl]-phenyl}-methanesulfonamide]
- Ki: ~6.7 nM
